Positions count from the first letter of the chain named.
Experiments:
[1] = system: E1 and E2; details: cited from earlier work
[2] = system: pfSENP1; details: cited from earlier work
[3] = system: SENP1 mRNA; details: cited from earlier work
[4] = biological target: T1, Kir2.1 channels (Homo sapiens, UniProt P63252); test: Whole-cell patch-clamp of heterologous Kir2.1 channels in HEK293T cells under hypoxia; format: cell-based; details: agent in recording pipette (SENP1 2 μM)
T1 construct: expressed in transfected cells; host or cells: HEK293T
T1 sequence (P63252 1-427): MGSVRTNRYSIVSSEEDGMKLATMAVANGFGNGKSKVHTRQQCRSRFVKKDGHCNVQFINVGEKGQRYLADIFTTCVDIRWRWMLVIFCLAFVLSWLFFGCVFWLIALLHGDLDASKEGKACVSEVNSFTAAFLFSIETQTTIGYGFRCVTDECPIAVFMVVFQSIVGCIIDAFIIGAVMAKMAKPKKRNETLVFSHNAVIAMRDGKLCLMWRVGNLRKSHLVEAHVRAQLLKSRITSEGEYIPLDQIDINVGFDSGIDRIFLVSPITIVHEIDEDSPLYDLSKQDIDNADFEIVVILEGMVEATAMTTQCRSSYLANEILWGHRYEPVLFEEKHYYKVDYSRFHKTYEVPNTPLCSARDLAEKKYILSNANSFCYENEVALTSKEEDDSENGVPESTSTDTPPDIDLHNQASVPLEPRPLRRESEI
Procedure: (§1) To knockdown Kir2.1 expression, RVCMs were transduced with lentiviral particles carrying cGFP and shRNA targeting KCNJ2-mRNA for the channel. Kir2.1 knockdown cells (Kir2.1kd-CMs) were identified by expression of cGFP. Cells were studied with control pipette solution, or with pipette solutions containing purified SUMO1 (1 μM) or SENP1 (2 μM). Where indicated, the control pipette solution contained diC8 PIP2. Paired patch-clamp data were analyzed by Students t-test; ***, P<0.01. […] Kir2.1kd-CMs are identified by expression of GFP (inset, scale bar=10 μm). […] The arrow indicates the change in current-magnitude between exposure to ambient O2 and 2% O2 in the same cell. Right, Concentration-response curve showing that including diC8-PIP2 in the pipette opposes hypoxic-inhibition of IK1 in control RVCMs and RVCMs expressing the scrambled shRNA. The hypoxic-response is diminished in Kir2.1kd-CMs. Data are mean±s.d. for 7-8 cells per condition. […] Current inhibition is diminished when SENP1 is included in the recording pipette and is not observed when SUMO-insensitive Kir2.1-K49Q channels are studied. Data are mean±s.d. for 6 cells per condition.
Hypoxic-inhibition of IK1/Kir2.1 is reduced by diC8-PIP2 in a concentration-dependent manner. We have shown that adding the exogenous, soluble PIP2 analog diC8-PIP2 into the patch-pipette opposes hypoxic-inhibition of IK1 (FIG. 4). […]

[5] = biological target: T2, Kir2.1-mediated IK1 current (Rattus norvegicus, UniProt Q64273); test: Whole-cell patch-clamp of IK1 in rat ventricular cardiomyocytes under acute hypoxia; format: cell-based
T2 construct: endogenous in cells; host or cells: rat ventricular cardiomyocytes (RVCMs)
T2 sequence (Q64273 1-427): T1 sequence (P63252 1-427) with G119S, Y336C, D388E, T402S, D405G
Procedure: IK1 in rat ventricular cardiomyocytes studied by whole-cell patch-clamp. Hypoxia was a drop in O2 from ambient levels to 2%, measured at the cell. The time-course of hypoxic-inhibition was studied by recording the magnitude of IK1 every second. Cells were studied with the following pipette solutions: control, SUMO1 (1 μM) or SENP1 (2 μM). IK1 was blocked by the addition of 3 mM Ba^2+. […] Left, representative current sweeps; right, a representative time course showing the kinetics of hypoxic inhibition in cardiomyocytes studied with control pipette solution. The inhibition is precluded by including SENP1 (2 μM, magenta) in the recording pipette. The reverse ramp recording protocol is inset. […] SENP1 augments IK1 and protects the current from hypoxia. Data are from 8-10 RVCMs per group, **** P<0.0001, paired, two-tailed Student's […]. […] Representative data are shown with DAPI labeled nuclei and PLA interactions. Summary data are obtained from multiple experiments each with multiple fields of view containing 20-30 nuclei. The scale bar is 10 μm.
as §1
Hypoxic-inhibition of Kir2.1 in cardiomyocytes via SUMOylation. We studied the effects of acute hypoxia on IK1 in rat ventricular cardiomyocytes (RVCMs) by whole cell patch-clamp recording. […] Both the hypoxia-sensitive and insensitive components of the current were blocked by Ba^2+ (3 mM), consistent with the known role of Kir2 channels in mediating IK1 (FIG. 1a). To determine if SUMOylation mediates the hypoxic inhibition of IK1 we introduced purified SENP1 (2 μM) to the cytosol via the recording pipette. […] Both the SUMO1 and hypoxia-mediated inhibition of IK1 remained stable throughout the remainder of the experiment (up to 10 mins). […] Next, we visualized and quantified the interactions between native Kir2.1 and SUMO1 in RVCMs using the proximity-ligation association (PLA) assay with antibodies we validated in heterologous cells by Western blot. […] The validated Kir2 antibodies were paired with SUMO1 antibodies that we have tested and utilized before. Under control conditions, interactions were observed between Kir2.1 and SUMO1, but not between Kir2.2 or Kir2.3 and SUMO1. […] Although cardiomyocytes are typically cultured at 21% O2, the O2-level in the myocardium is estimated to be in the range of 5-10% O2, under physiological conditions.
Hypoxic-inhibition of IK1/Kir2.1 is reduced by diC8-PIP2 in a concentration-dependent manner. We have shown that adding the exogenous, soluble PIP2 analog diC8-PIP2 into the patch-pipette opposes hypoxic-inhibition of IK1 (FIG. 4). […] As before, the effects of hypoxia were ameliorated by SENP1 (2 μM) and were not observed in the SUMO and hypoxia insensitive Kir2.1-K49Q channels (FIG. 4D).

[6] = system: SUMOylation; details: cited from earlier work

## COC1=C(N)C(=O)c2[nH]cc(CO)c2C1=N [Compound 61]
[1]
  ROS generation and E1/E2 crosslinking: generated ROS and subsequent E1 and E2 crosslinking

## O=C(O)CN(NC(=O)c1ccc(CNC(=O)c2cccc(C(=O)O)c2)cc1)C(=O)[C@H]1O[C@@H]1C(=O)N(Cc1cccc2ccccc12)Cc1cccc2ccccc12 [JCP-666]
[2]
  pfSENP1 inhibition: inhibitor

## CC(C)[C@]12O[C@H]1[C@@H]1O[C@]13[C@]1(O[C@H]1C[C@H]1C4=C(CC[C@@]13C)C(=O)OC4)[C@@H]2O [Triptolide]
[3]
  SENP1 mRNA levels: decreased SENP1 mRNA levels

## CCCCCCCC(=O)OC[C@H](COP(=O)(O)O[C@@H]1[C@H](O)[C@H](O)[C@@H](OP(=O)(O)O)[C@H](OP(=O)(O)O)[C@H]1O)OC(=O)CCCCCCC [diC8-PIP2]
[4]
  effect on hypoxic inhibition of Kir2.1 channels: concentration-dependent reduction in hypoxic inhibition
[5]; 100 μM diC8-PIP2 in pipette, wild-type RVCMs, ~40% without
  hypoxic inhibition of IK1: ~15%
[5]; ambient O2 to 2% O2, agent in pipette (SENP1 2 μM, SUMO1 1 μM, diC8-PIP2) or pretreatment (TAK981)
  effect on hypoxic inhibition of IK1: diminished the hypoxic-inhibition of IK1 in a concentration-dependent manner

## CSC1=C(N)C(=O)c2[nH]cc(CO)c2C1=N [macrophilone A]
[1]
  ROS generation and E1/E2 crosslinking: generated ROS and subsequent E1 and E2 crosslinking
[6]
  SUMOylation inhibition: demonstrated SUMOylation inhibitory activity through formation of ROS

— US20240358731A1, “SUMO PATHWAY AS AN OXYGEN SENSOR RELEVANT TO THE PATHOPHYSIOLOGY OF PULMONARY ARTERY HYPERTENSION AND CARDIAC ARRHYTHMIA” (Northeastern University, priority 2023, published 2024)
